For one compound, Activity results are on record in ChEMBL document CHEMBL3232765, “Anti-mycobacterial activity of 1,3-diaryltriazenes” (Eur J Med Chem, 2014).

The test system of the assay is Mycobacterium tuberculosis. Briefly: Antimycobacterial activity against multidrug-resistant Mycobacterium tuberculosis LAM-1 at 0.73 uM after 4 to 6 days by BACTEC MGIT 960 assay. It is filed as functional, organism-based.

Each structure is given as a SMILES string. Active and inactive are the calls of the source. The rule behind the calls is not given here.

`NNC(=O)c1ccncc1` [ISONIAZID]: the outcome was inactive.
